{"source": "PubChem BioAssay (NCI)", "assay_in_all_cases": "inhibition of tumour cell growth, NCI panel, 48 h", "key": {"MALME-3M melanoma": {"tested_on": "MALME-3M melanoma"}, "OVCAR-5 ovarian": {"tested_on": "OVCAR-5 ovarian"}, "SF-268 CNS": {"tested_on": "SF-268 CNS"}, "SNB-19 CNS": {"tested_on": "SNB-19 CNS"}, "COLO 205 colon": {"tested_on": "COLO 205 colon"}, "CAKI-1 renal": {"tested_on": "CAKI-1 renal"}, "SK-OV-3 ovarian": {"tested_on": "SK-OV-3 ovarian"}, "U251 CNS": {"tested_on": "U251 CNS"}, "T-47D breast": {"tested_on": "T-47D breast"}, "MDA-MB-435": {"tested_on": "MDA-MB-435"}}, "note": "“And” between values parts separate entries of the source, which are not always exact repeats. Identical values can stand only once.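 Each compound was tested at five concentrations against cells in 96-well plates for 48 hours. GI50 marks 50% less growth. Definition used: TGI = concentration required for complete inhibition of growth.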", "data": [{"molecule": "COC(=O)Cc1cc(=O)n2c3ccccc3n(C)c2c1C#N", "values": [{"measurement": "TGI", "setting": "MALME-3M melanoma", "value": "> 100", "unit": "µM"}, {"measurement": "TGI", "setting": "OVCAR-5 ovarian", "value": "> 100", "unit": "µM"}, {"measurement": "TGI", "setting": "SF-268 CNS", "value": "> 100", "unit": "µM"}, {"measurement": "TGI", "setting": "SNB-19 CNS", "value": "> 100", "unit": "µM"}, {"measurement": "TGI", "setting": "COLO 205 colon", "value": "> 100", "unit": "µM"}, {"measurement": "TGI", "setting": "CAKI-1 renal", "value": "> 100", "unit": "µM"}, {"measurement": "TGI", "setting": "SK-OV-3 ovarian", "value": "> 100", "unit": "µM"}, {"measurement": "TGI", "setting": "U251 CNS", "value": "> 100", "unit": "µM"}]}, {"molecule": "COC(=O)C1=NC(=S)NC(c2ccccc2)C1c1nc2ccccc2o1", "note": "(configuration not stated)", "values": [{"measurement": "TGI", "setting": "MALME-3M melanoma", "value": "> 50", "unit": "µM"}, {"measurement": "TGI", "setting": "OVCAR-5 ovarian", "value": "> 50", "unit": "µM"}, {"measurement": "TGI", "setting": "SF-268 CNS", "value": "> 50", "unit": "µM"}, {"measurement": "TGI", "setting": "SNB-19 CNS", "value": "> 50", "unit": "µM"}, {"measurement": "TGI", "setting": "COLO 205 colon", "value": "> 50", "unit": "µM"}, {"measurement": "TGI", "setting": "CAKI-1 renal", "value": "> 50", "unit": "µM"}, {"measurement": "TGI", "setting": "SK-OV-3 ovarian", "value": "> 50", "unit": "µM"}, {"measurement": "TGI", "setting": "U251 CNS", "value": "> 50", "unit": "µM"}]}, {"molecule": "CC(=O)c1cc2c(N)c(C(=O)Nc3cccc4ccccc34)sc2nc1C", "values": [{"measurement": "GI50", "setting": "MALME-3M melanoma", "value": 6.92, "unit": "µM"}, {"measurement": "TGI", "setting": "MALME-3M melanoma", "value": "> 50", "unit": "µM"}, {"measurement": "GI50", "setting": "OVCAR-5 ovarian", "value": 2.6, "unit": "µM"}, {"measurement": "TGI", "setting": "OVCAR-5 ovarian", "value": "> 50", "unit": "µM"}, {"measurement": "GI50", "setting": "T-47D breast", "value": 1.6, "unit": "µM"}, {"measurement": "TGI", "setting": "T-47D breast", "value": "> 50", "unit": "µM"}, {"measurement": "GI50", "setting": "SF-268 CNS", "value": 4.34, "unit": "µM"}, {"measurement": "TGI", "setting": "SF-268 CNS", "value": "> 50", "unit": "µM"}, {"measurement": "GI50", "setting": "MDA-MB-435", "value": 0.178, "unit": "µM"}, {"measurement": "TGI", "setting": "MDA-MB-435", "value": 1.08, "unit": "µM"}, {"measurement": "GI50", "setting": "SNB-19 CNS", "value": 1.78, "unit": "µM"}, {"measurement": "TGI", "setting": "SNB-19 CNS", "value": "> 50", "unit": "µM"}, {"measurement": "GI50", "setting": "COLO 205 colon", "value": 1.12, "unit": "µM"}, {"measurement": "TGI", "setting": "COLO 205 colon", "value": 3.2, "unit": "µM"}, {"measurement": "GI50", "setting": "SK-OV-3 ovarian", "value": 0.512, "unit": "µM"}, {"measurement": "TGI", "setting": "SK-OV-3 ovarian", "value": "> 50", "unit": "µM"}, {"measurement": "GI50", "setting": "U251 CNS", "value": 1.92, "unit": "µM"}, {"measurement": "TGI", "setting": "U251 CNS", "value": "> 50", "unit": "µM"}]}, {"molecule": "COc1cccc(/C=C2\\N=C(c3ccccc3)OC2=O)c1", "values": [{"measurement": "TGI", "setting": "OVCAR-5 ovarian", "value": "> 100", "unit": "µM"}, {"measurement": "TGI", "setting": "T-47D breast", "value": "> 100", "unit": "µM"}, {"measurement": "TGI", "setting": "SF-268 CNS", "value": "> 100", "unit": "µM"}, {"measurement": "TGI", "setting": "MDA-MB-435", "value": "> 100", "unit": "µM"}, {"measurement": "TGI", "setting": "SNB-19 CNS", "value": "> 100", "unit": "µM"}, {"measurement": "TGI", "setting": "COLO 205 colon", "value": "> 100", "unit": "µM"}, {"measurement": "TGI", "setting": "CAKI-1 renal", "value": "> 100", "unit": "µM"}, {"measurement": "TGI", "setting": "SK-OV-3 ovarian", "value": "> 100", "unit": "µM"}, {"measurement": "TGI", "setting": "U251 CNS", "value": "> 100", "unit": "µM"}]}, {"molecule": "CCCCCCCCCCCC/C=C\\CC[C@@H](O)[C@H](O)CC[C@H](O)[C@@H]1CC[C@@H](CCCCCCCC2=C[C@H](C)OC2=O)O1", "values": [{"measurement": "TGI", "setting": "MALME-3M melanoma", "value": 31.2, "unit": "µM"}, {"measurement": "TGI", "setting": "OVCAR-5 ovarian", "value": 38.4, "unit": "µM"}, {"measurement": "GI50", "setting": "T-47D breast", "value": 2.85, "unit": "µM"}, {"measurement": "TGI", "setting": "T-47D breast", "value": 21.5, "unit": "µM"}, {"measurement": "GI50", "setting": "SF-268 CNS", "value": 14.2, "unit": "µM"}, {"measurement": "TGI", "setting": "SF-268 CNS", "value": 38, "unit": "µM"}, {"measurement": "GI50", "setting": "MDA-MB-435", "value": 11.4, "unit": "µM"}, {"measurement": "GI50", "setting": "SNB-19 CNS", "value": 9.85, "unit": "µM"}, {"measurement": "TGI", "setting": "SNB-19 CNS", "value": 29.3, "unit": "µM"}, {"measurement": "GI50", "setting": "COLO 205 colon", "value": 7.21, "unit": "µM"}, {"measurement": "TGI", "setting": "COLO 205 colon", "value": "8.36 µM and 22.9 µM"}, {"measurement": "TGI", "setting": "CAKI-1 renal", "value": 35.7, "unit": "µM"}, {"measurement": "GI50", "setting": "U251 CNS", "value": 13.7, "unit": "µM"}, {"measurement": "TGI", "setting": "U251 CNS", "value": "> 100", "unit": "µM"}]}, {"molecule": "Cc1ccc(NCCNCC(C)(C)O)c2c(=O)c3ccc(Cl)cc3sc12", "values": [{"measurement": "GI50", "setting": "MALME-3M melanoma", "value": 1.59, "unit": "µM"}, {"measurement": "TGI", "setting": "MALME-3M melanoma", "value": 3.23, "unit": "µM"}, {"measurement": "GI50", "setting": "OVCAR-5 ovarian", "value": 1.47, "unit": "µM"}, {"measurement": "TGI", "setting": "OVCAR-5 ovarian", "value": 2.95, "unit": "µM"}, {"measurement": "GI50", "setting": "SF-268 CNS", "value": 1.52, "unit": "µM"}, {"measurement": "TGI", "setting": "SF-268 CNS", "value": 3.22, "unit": "µM"}, {"measurement": "GI50", "setting": "MDA-MB-435", "value": 1.74, "unit": "µM"}, {"measurement": "TGI", "setting": "MDA-MB-435", "value": 3.27, "unit": "µM"}, {"measurement": "GI50", "setting": "SNB-19 CNS", "value": 1.67, "unit": "µM"}, {"measurement": "TGI", "setting": "SNB-19 CNS", "value": 3.27, "unit": "µM"}, {"measurement": "GI50", "setting": "COLO 205 colon", "value": 1.34, "unit": "µM"}, {"measurement": "TGI", "setting": "COLO 205 colon", "value": 2.92, "unit": "µM"}, {"measurement": "GI50", "setting": "SK-OV-3 ovarian", "value": 1.46, "unit": "µM"}, {"measurement": "TGI", "setting": "SK-OV-3 ovarian", "value": 2.98, "unit": "µM"}, {"measurement": "GI50", "setting": "U251 CNS", "value": 1.67, "unit": "µM"}, {"measurement": "TGI", "setting": "U251 CNS", "value": 3.06, "unit": "µM"}]}, {"molecule": "CCCN1C(=O)/C(=C/c2ccc(SC(F)(F)F)cc2)SC1=Nc1ccc(OC)cc1", "values": [{"measurement": "GI50", "setting": "OVCAR-5 ovarian", "value": 7.84, "unit": "µM"}, {"measurement": "TGI", "setting": "OVCAR-5 ovarian", "value": 24, "unit": "µM"}, {"measurement": "GI50", "setting": "SF-268 CNS", "value": 11.3, "unit": "µM"}, {"measurement": "TGI", "setting": "SF-268 CNS", "value": 43.9, "unit": "µM"}, {"measurement": "GI50", "setting": "MDA-MB-435", "value": 20, "unit": "µM"}, {"measurement": "TGI", "setting": "MDA-MB-435", "value": "> 50", "unit": "µM"}, {"measurement": "GI50", "setting": "SNB-19 CNS", "value": 17.4, "unit": "µM"}, {"measurement": "TGI", "setting": "SNB-19 CNS", "value": "> 50", "unit": "µM"}, {"measurement": "GI50", "setting": "COLO 205 colon", "value": "> 50", "unit": "µM"}, {"measurement": "TGI", "setting": "COLO 205 colon", "value": "> 50", "unit": "µM"}, {"measurement": "GI50", "setting": "CAKI-1 renal", "value": 2.63, "unit": "µM"}, {"measurement": "TGI", "setting": "CAKI-1 renal", "value": 12.5, "unit": "µM"}, {"measurement": "GI50", "setting": "SK-OV-3 ovarian", "value": 15.2, "unit": "µM"}, {"measurement": "TGI", "setting": "SK-OV-3 ovarian", "value": "> 50", "unit": "µM"}, {"measurement": "GI50", "setting": "U251 CNS", "value": 6.51, "unit": "µM"}, {"measurement": "TGI", "setting": "U251 CNS", "value": 16.9, "unit": "µM"}]}, {"molecule": "Clc1ccc2c(NCCNc3nc(N4CCOCC4)nc4ccccc34)ccnc2c1", "values": [{"measurement": "GI50", "setting": "MALME-3M melanoma", "value": 1.97, "unit": "µM"}, {"measurement": "TGI", "setting": "MALME-3M melanoma", "value": 3.89, "unit": "µM"}, {"measurement": "GI50", "setting": "OVCAR-5 ovarian", "value": 3.34, "unit": "µM"}, {"measurement": "TGI", "setting": "OVCAR-5 ovarian", "value": 12.6, "unit": "µM"}, {"measurement": "GI50", "setting": "T-47D breast", "value": 2.82, "unit": "µM"}, {"measurement": "TGI", "setting": "T-47D breast", "value": 8.98, "unit": "µM"}, {"measurement": "GI50", "setting": "SF-268 CNS", "value": 3.53, "unit": "µM"}, {"measurement": "TGI", "setting": "SF-268 CNS", "value": 13, "unit": "µM"}, {"measurement": "GI50", "setting": "MDA-MB-435", "value": 2.34, "unit": "µM"}, {"measurement": "TGI", "setting": "MDA-MB-435", "value": 5.88, "unit": "µM"}, {"measurement": "GI50", "setting": "SNB-19 CNS", "value": 2.59, "unit": "µM"}, {"measurement": "TGI", "setting": "SNB-19 CNS", "value": 8.78, "unit": "µM"}, {"measurement": "GI50", "setting": "COLO 205 colon", "value": 2.02, "unit": "µM"}, {"measurement": "TGI", "setting": "COLO 205 colon", "value": 4.46, "unit": "µM"}, {"measurement": "GI50", "setting": "SK-OV-3 ovarian", "value": 1.85, "unit": "µM"}, {"measurement": "TGI", "setting": "SK-OV-3 ovarian", "value": 3.85, "unit": "µM"}, {"measurement": "GI50", "setting": "U251 CNS", "value": 1.71, "unit": "µM"}, {"measurement": "TGI", "setting": "U251 CNS", "value": 3.4, "unit": "µM"}]}]}
